What follows are molecules tested on HIV-1 single-round infectious reporter virus (assay: Single-round infectious HIV-1 luciferase reporter virus infection of HeLa CD4 cells). Details: Human immunodeficiency virus 1, HeLa, 72 h, read-out: EC50 Group from Table 1.
Type: cell-based
Protocol: • Virus production—Human embryonic Kidney cell line, 293, was propagated in Dulbecco's Modified Eagle Medium (Invitrogen, Carlsbad, Calif.) containing 10% fetal Bovine serum (FBS, Sigma, St. Louis, Mo.). • Virus infection—Human epithelial cell line, HeLa, expressing the HIV-1 receptor CD4 was propagated in Dulbecco's Modified Eagle Medium (Invitrogen, Carlsbad, Calif.) containing 10% fetal Bovine serum (FBS, Sigma, St. Louis, Mo.) and supplemented with 0.2 mg/mL Geneticin (Invitrogen, Carlsbad, Calif.). Virus-Single-round infectious reporter virus was produced by co-transfecting human embryonic Kidney 293 cells with an HIV-1 envelope DNA expression vector and a proviral cDNA containing an envelope deletion mutation and the luciferase reporter gene inserted in place of HIV-1 nef sequences (Chen et al, Ref 41). Transfections were performed using lipofectAMINE PLUS reagent as described by the manufacturer (Invitrogen, Carlsbad, Calif.). Experiment • 1. HeLa CD4 cells were plated in 96 well plates at a cell density of 1×10^4 cells per well in 100 μl Dulbecco's Modified Eagle Medium containing 10% fetal Bovine serum and incubated overnight. • 2. Compound was added in a 2 μl dimethylsulfoxide solution, so that the final assay concentration would be ≦10 μM. • 3. 100 μl of single-round infectious reporter virus in Dulbecco's Modified Eagle Medium was then added to the plated cells and compound at an approximate multiplicity of infection (MOI) of 0.01, resulting in a final volume of 200 μl per well. • 4. Virally-infected cells were incubated at 37 degrees Celsius, in a CO2 incubator, and harvested 72 h after infection. • 5. Viral infection was monitored by measuring luciferase expression from viral DNA in the infected cells using a luciferase reporter gene assay kit, as described by the manufacturer (Roche Molecular Biochemicals, Indianapolis, Ind.). Infected cell supernatants were removed and 50 μl of lysis buffer was added per well. After 15 minutes, 50 μl of freshly-reconstituted luciferase assay reagent was added per well. Luciferase activity was then quantified by measuring luminescence using a Wallac microbeta scintillation counter. • 6. The percent inhibition for each compound was calculated by quantifying the level of luciferase expression in cells infected in the presence of each compound as a percentage of that observed for cells infected in the absence of compound and subtracting such a determined value from 100. • 7. An EC50 provides a method for comparing the antiviral potency of the compounds of this invention. The effective concentration for fifty percent inhibition (EC50) was calculated with the Microsoft Excel Xlfit curve fitting software. For each compound, curves were generated from percent inhibition calculated at 10 different concentrations by using a four paramenter logistic model (model 205). Table 1 is the key for the data in Table 2. Results

`COc1cnc(-n2cnc(C)n2)c2[nH]cc(C(=O)C(=O)N3CCN(c4nc(N)cc5ccccc45)CC3)c12` [Example 65] and `COc1cnc(-n2cnc(C)n2)c2[nH]cc(C(=O)C(=O)N3CCN(c4nc(Cl)cc5ccccc45)CC3)c12` [Example 66] cannot be ordered by EC50: under 1000 nM for the first, under 1000 nM for the second.

`COc1cnc(-n2ccnn2)c2[nH]cc(C(=O)C(=O)N3CCN(c4nc(Cl)cc5ccccc45)CC3)c12` [Example 67] and `O=C(C(=O)N1CCN(c2nc(Cl)cc3ccccc23)CC1)c1c[nH]c2c(-n3ccnn3)ncc(F)c12` [Example 68] cannot be ordered by EC50: under 1000 nM for the first, under 1000 nM for the second.

`COc1cnc(-n2cnc(C#N)n2)c2[nH]cc(C(=O)C(=O)N3CCN(c4ncnc5ccccc45)CC3)c12` [Example 69] and `COc1cnc(-n2cnc(C(N)=O)n2)c2[nH]cc(C(=O)C(=O)N3CCN(c4ncnc5ccccc45)CC3)c12` [Example 70] cannot be ordered by EC50: under 1000 nM for the first, under 1000 nM for the second.

`O=C(C(=O)N1CCN(c2nccc3ccccc23)CC1)c1c[nH]c2c(-c3ccccn3)ncc(F)c12` [Example 72] and `O=C(C(=O)N1CCN(c2nncc3ccccc23)CC1)c1c[nH]c2c(-c3ccccn3)ncc(F)c12` [Example 77] cannot be ordered by EC50: under 1000 nM for the first, under 1000 nM for the second.

`O=C(C(=O)N1CCN(c2ncnc3ccccc23)CC1)c1c[nH]c2c(Br)ncc(F)c12` [Example 73] and `O=C(C(=O)N1CCN(c2nncc3ccccc23)CC1)c1c[nH]c2c(Br)ncc(F)c12` [Example 92] cannot be ordered by EC50: under 1000 nM for the first, under 1000 nM for the second.

`COc1cnc(Cl)c2[nH]cc(C(=O)C(=O)N3CCN(c4ncnc5ccccc45)CC3)c12` [Example 75] and `COc1cnc(-c2cc[nH]n2)c2[nH]cc(C(=O)C(=O)N3CCN(c4ncnc5ccccc45)CC3)c12` [Example 96] cannot be ordered by EC50: under 1000 nM for the first, under 1000 nM for the second.

`O=C(C(=O)N1CCN(c2nncc3ccccc23)CC1)c1c[nH]c2c(-c3cnccn3)ncc(F)c12` [Example 78] and `O=C(C(=O)N1CCN(c2nncc3ccccc23)CC1)c1c[nH]c2c(-c3cn[nH]c3)ncc(F)c12` [Example 93] cannot be ordered by EC50: under 1000 nM for the first, under 1000 nM for the second.

First: O=C(C(=O)N1CCN(c2ncnc3ccccc23)CC1)c1c[nH]c2c(-c3ccncc3)ncc(F)c12 [Example 79]
Second: O=C(C(=O)N1CCN(c2ncnc3ccccc23)CC1)c1c[nH]c2c(-c3cccnc3)ncc(F)c12 [Example 83]
The EC50 of the first is higher: 1000 to 5000 nM for the first, under 1000 nM for the second.

`COc1cnc(-c2cncnc2)c2[nH]cc(C(=O)C(=O)N3CCN(c4ncnc5ccccc45)CC3)c12` [Example 80] and `O=C(C(=O)N1CCN(c2ncnc3ccccc23)CC1)c1c[nH]c2c(-c3cncnc3)ncc(F)c12` [Example 81] cannot be ordered by EC50: under 1000 nM for the first, under 1000 nM for the second.

`COc1ncc(-c2ncc(F)c3c(C(=O)C(=O)N4CCN(c5ncnc6ccccc56)CC4)c[nH]c23)cn1` [Example 82] and `O=C(C(=O)N1CCN(c2ncnc3ccccc23)CC1)c1c[nH]c2c(-c3cn[nH]c3)ncc(F)c12` [Example 95] cannot be ordered by EC50: under 1000 nM for the first, under 1000 nM for the second.

`O=C(C(=O)N1CCN(c2ncnc3ccccc23)CC1)c1c[nH]c2c(-c3ncccn3)ncc(F)c12` [Example 84] and `O=C(C(=O)N1CCN(c2ncnc3ccccc23)CC1)c1c[nH]c2c(-c3cc[nH]n3)ncc(F)c12` [Example 94] cannot be ordered by EC50: under 1000 nM for the first, under 1000 nM for the second.

`COc1cnc(-n2cncn2)c2[nH]cc(C(=O)C(=O)N3CCN(c4ccnc5ccccc45)CC3)c12` [Example 85] and `COc1cc(N2CCN(C(=O)C(=O)c3c[nH]c4c(-n5cncn5)ncc(OC)c34)CC2)c2cc(C)ccc2n1` [Example 86] cannot be ordered by EC50: under 1000 nM for the first, under 1000 nM for the second.

`N#Cc1ncc(F)c2c(C(=O)C(=O)N3CCN(c4nccc5ccccc45)CC3)c[nH]c12` [Example 87] and `O=C(C(=O)N1CCN(c2nccc3ccccc23)CC1)c1c[nH]c2c(-c3nc(-c4ccccc4)n[nH]3)ncc(F)c12` [Example 88] cannot be ordered by EC50: under 1000 nM for the first, under 1000 nM for the second.

`N=C(NNC(=O)c1ccccc1)c1ncc(F)c2c(C(=O)C(=O)N3CCN(c4nccc5ccccc45)CC3)c[nH]c12` [Example 89] and `O=C(C(=O)N1CCN(c2ccc3ccccc3n2)CC1)c1c[nH]c2c(-n3ccnn3)ncc(F)c12` [Example 91] cannot be ordered by EC50: under 1000 nM for the first, under 1000 nM for the second.

With `COc1cnc(-n2cnc(C)n2)c2[nH]cc(C(=O)C(=O)N3CCN(c4ccc5ccccc5n4)CC3)c12` [Example 90] the EC50 was under 1000 nM.

Source: US8039486B2, “Indole, azaindole and related heterocyclic N-substituted piperazine derivatives” (priority 2003, dated 2011)
